Results as given in patent US12636385B2, “Selective ligands for tau aggregates” (Sentonix, Inc., priority 2018, dated 2026).
Where two headings read alike, the source gives them in different places. Blank lines part the entries; values can stand above or below the compound they belong to.

Tests used:
[1] = Rat brain cassette exposure study; type: in vivo, Sprague Dawley rat; settings: intravenous cassette dosing; for half-life: male, Sprague Dawley, rat, brain, read-out: calculated half-life (t1/2) in rat brain tissue
Experimental: The in vivo pharmacokinetic characteristics of the example compounds of the invention were compared directly with the known beta-amyloid specific ligand AZD2184 (Johnson, A. E., et al, Journal of Neurochemistry (2009), Vol. 108, pages 1177-1186). Rat brain exposure to three compounds of the invention and AZD2184 was measured by intravenous cassette dosing three test compound: Example Compound 43, Example Compound 47 and Example Compound 48; and AZD2184 (Novandi Chemistry) (concentration of 0.25 μmol/mL each) using the procedure previously described in Johnson, A. E., et al, Journal of Neurochemistry (2009), Vol. 108, pages 1177-1186. 6 male Sprague Dawley rat were used in the experiments, three rats per time point (2 min and 30 min).

[2] = literature value; cited from earlier work
MAO-A [3] = molecular target: T1, MAO-A (Homo sapiens, UniProt P21397); experiment: MAO-A enzyme and uptake assay (kynuramine); type: biochemical; settings: tested at 1 μM, human placenta; for inhibition at 1 µM: read-out: % inhibition of control enzyme activity, MAO-A
T1 construct: EuroFins Pharma Discovery Service (assay service)
T1 sequence (P21397 1-527): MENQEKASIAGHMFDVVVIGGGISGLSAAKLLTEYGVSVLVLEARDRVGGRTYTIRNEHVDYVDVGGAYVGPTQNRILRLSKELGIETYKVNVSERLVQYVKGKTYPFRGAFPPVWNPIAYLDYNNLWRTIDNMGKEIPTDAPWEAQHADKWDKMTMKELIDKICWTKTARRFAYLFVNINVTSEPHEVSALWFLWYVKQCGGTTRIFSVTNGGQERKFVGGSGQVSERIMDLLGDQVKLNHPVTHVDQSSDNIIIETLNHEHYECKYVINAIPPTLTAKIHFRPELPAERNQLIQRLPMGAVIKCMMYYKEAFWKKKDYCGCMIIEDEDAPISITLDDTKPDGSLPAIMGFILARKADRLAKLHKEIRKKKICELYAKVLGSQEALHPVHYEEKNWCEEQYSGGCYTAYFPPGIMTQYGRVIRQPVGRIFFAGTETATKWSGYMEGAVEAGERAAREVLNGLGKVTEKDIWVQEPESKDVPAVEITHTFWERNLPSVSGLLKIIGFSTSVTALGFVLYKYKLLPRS
Experimental: (§1) MAO enzyme and uptake assays were also performed (EuroFins Pharma Discovery Service) as described in Weyler, W., et al., J. Biol. Chem. (1985), Vol. 260, pages 13199-13207, using the materials and conditions described in Table 4; and as described in Tsugeno, U., et al., J Biochem. (1995), Vol. 118, pages 974-980, using the materials and conditions described in Table 5, for Example Compound 43, Example Compound 48 and the known tau ligand THK-5117. The three compounds were tested at 1 μM. Compound enzyme/uptake inhibition effect was calculated as a % inhibition of control enzyme activity.
(§2) The results of the enzyme and uptake assays are expressed as a percent inhibition of control specific activity obtained in the presence of the test compounds: […]

MAO-B = molecular target: T2, MAO-B (Homo sapiens, UniProt P27338); experiment: MAO-B recombinant enzyme assay (D-Luciferin derivative); type: biochemical; settings: tested at 1 μM; for inhibition at 1 µM: read-out: % inhibition of control enzyme activity, MAO-B
T2 construct: EuroFins Pharma Discovery Service (assay service)
T2 sequence (P27338 1-520): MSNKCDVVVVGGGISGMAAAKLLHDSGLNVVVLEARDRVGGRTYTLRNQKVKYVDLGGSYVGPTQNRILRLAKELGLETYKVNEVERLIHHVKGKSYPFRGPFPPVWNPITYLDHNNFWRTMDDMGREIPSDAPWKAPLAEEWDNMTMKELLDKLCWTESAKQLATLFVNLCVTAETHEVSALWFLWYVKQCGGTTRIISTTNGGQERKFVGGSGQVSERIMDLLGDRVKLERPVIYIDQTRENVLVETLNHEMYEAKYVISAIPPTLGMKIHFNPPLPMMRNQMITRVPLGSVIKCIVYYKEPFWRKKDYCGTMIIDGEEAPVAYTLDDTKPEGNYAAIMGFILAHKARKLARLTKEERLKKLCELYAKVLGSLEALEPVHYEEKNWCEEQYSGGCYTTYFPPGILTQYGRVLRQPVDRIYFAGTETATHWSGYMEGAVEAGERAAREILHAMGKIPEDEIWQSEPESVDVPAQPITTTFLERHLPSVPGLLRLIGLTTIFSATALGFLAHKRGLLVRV
Experimental: as §1, §2

MAO-A [4] = molecular target: T3, MAO-A (Rattus norvegicus, UniProt P21396); experiment: MAO-A binding assay ([^3H]-Ro41-1049); settings: tested at 1 μM, rat cerebral cortex; for inhibition at 1 µM: read-out: % inhibition of control specific binding, MAO-A binding assay
T3 construct: tissue EuroFins Pharma Discovery Service (assay service); host or cells: rat cerebral cortex (own knowledge of the vendor's assay)
T3 sequence (P21396 1-526): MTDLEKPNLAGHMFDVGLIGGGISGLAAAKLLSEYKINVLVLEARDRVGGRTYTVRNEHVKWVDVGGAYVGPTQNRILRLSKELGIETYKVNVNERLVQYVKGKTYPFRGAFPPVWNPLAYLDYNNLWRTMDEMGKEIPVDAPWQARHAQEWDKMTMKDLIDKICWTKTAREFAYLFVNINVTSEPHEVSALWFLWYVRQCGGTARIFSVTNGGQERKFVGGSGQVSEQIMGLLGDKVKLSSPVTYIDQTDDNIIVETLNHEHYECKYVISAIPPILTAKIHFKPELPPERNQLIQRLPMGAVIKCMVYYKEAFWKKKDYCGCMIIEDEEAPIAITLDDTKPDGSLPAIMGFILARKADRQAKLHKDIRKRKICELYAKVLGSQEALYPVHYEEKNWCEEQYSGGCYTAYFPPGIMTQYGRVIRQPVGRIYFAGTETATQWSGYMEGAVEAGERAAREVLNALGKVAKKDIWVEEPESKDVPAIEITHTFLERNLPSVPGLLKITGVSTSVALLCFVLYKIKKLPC
Experimental: A monoamine oxidase inhibitor (MAO) binding assay for MAO-A was performed (EuroFins Pharma Discovery Service) for Example Compound 43, Example Compound 48 and the known tau ligand THK-5117. The three compounds were tested at 1 μM. Compound binding was calculated as a % inhibition of the binding of the selective MAO-A inhibitor [^3H]-Ro41-1049 for MAO-A binding.
The MAO-A binding assay was carried our as described in Cesura, A. M., et al, Mol. Phamacol. (1990), Vol 37, pages 358-366, using the materials and conditions described in Table 3.
The results of the MAO-A binding assay are expressed as a percent inhibition of control specific binding obtained in the presence of the test compounds: […]

0N4R Tau fibrils = molecular target: T4, 0N4R Tau fibrils (Homo sapiens, UniProt P10636); experiment: In vitro competitive binding to 0N4R tau fibrils in the presence of [^3H]-Example Compound 68 (FIG. 1)
T4 construct: made in house

[5] = cited from earlier work
tau plaques = experiment: Autoradiography on brain sections from CBD and PSP patients; type: binding, human; settings: 3 nM radiotracer, with or without 1 μM unlabeled compound; compared with antibody AT8
Experimental: To examine binding of the example compounds of the present invention to tau plaques in vitro, autoradiography was carried out on brain sections from corticobasal degeneration (CBD) and progressive supranuclear palsy (PSP) patients incubated with [^3H]-Example Compound 72 or [^3H]-Example Compound 48 in the presence or absence of unlabeled Example Compound […] (1 μM) or unlabeled Example Compound 48 (1 μM), respectively. The experiment was performed as previously described in Johnson, A. E., et al, Journal of Neurochemistry (2009), Vol. 108, pages 1177-1186, but using post mortem cortical samples from corticobasal degeneration (CBD) and progressive supranuclear palsy (PSP) patients instead of from Alzheimer's disease patients.
Briefly, brain sections from the cortical samples were incubated for 30 min at 22° C. in 50 mN Tris buffer (pH 7.4) together with 3 nM [^3H]-Example Compound 72 or 3 nM [^3H]-Example Compound 48 in the presence of absence of on unlabeled Example Compound 72 (1 μM) or unlabeled Example Compound 48 (1 μM), respectively. The sections were then washed (3×10 min) in Tris buffer (1° C.) followed by a rinse in deionized water (1° C.) and air-dried at 22° C. in front of a fan. Binding was then measured and analysed as described in Johnson, A. E., et al.
The tau pathology was confirmed on adjacent brain sections by immunohisto-chemistry (IHC) using Phospho-Tau (Ser202, Thr205) Monoclonal Antibody (AT8) as previously as described in Biernat, J., et al, EMBO J. (1992) Vol. 4, pages 1593-1597. AT8 was obtained from Thermo Fisher Scientific (Phospho-PHF-Tau, Thermo Ficher Scientific, Catalog No. MN1020, Stock cone: 0.2 mg/ml, Working solution: 1/100).

Chain of tau plaques (P10636 561-708 limits assumed): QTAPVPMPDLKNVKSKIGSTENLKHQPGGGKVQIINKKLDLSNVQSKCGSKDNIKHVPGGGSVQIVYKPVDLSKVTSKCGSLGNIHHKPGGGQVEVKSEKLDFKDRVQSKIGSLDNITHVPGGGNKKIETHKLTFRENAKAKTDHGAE
T4 sequence (P10636 1-383 isoform P10636-6): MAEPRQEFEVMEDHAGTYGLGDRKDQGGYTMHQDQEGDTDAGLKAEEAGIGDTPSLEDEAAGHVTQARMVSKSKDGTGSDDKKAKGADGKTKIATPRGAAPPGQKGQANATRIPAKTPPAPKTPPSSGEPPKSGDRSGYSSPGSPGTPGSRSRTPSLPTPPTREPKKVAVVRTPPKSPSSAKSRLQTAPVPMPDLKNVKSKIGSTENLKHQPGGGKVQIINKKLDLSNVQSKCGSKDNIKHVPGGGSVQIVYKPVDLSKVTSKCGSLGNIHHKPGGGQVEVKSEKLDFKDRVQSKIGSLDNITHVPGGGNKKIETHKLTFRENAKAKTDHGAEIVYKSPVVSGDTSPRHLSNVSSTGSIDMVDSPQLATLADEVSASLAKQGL

half-life ([1]; samples at 2 min and 30 min): 379 min
inhibition at 1 µM (MAO-A [3]): < 25%
inhibition at 1 µM (MAO-B): < 25%
inhibition at 1 µM (MAO-A [4]): < 25%
Compound: NC(=O)c1ccc2nc(-c3cnc(N4CCC(CCF)CC4)nc3)sc2c1 [Example Compound 43, 2-{2-[4-(2-Fluoroethyl)piperidin-1-yl]pyrimidin-5-yl}-1,3-benzothiazole-6-carboxamide]

clearance from normal rat brain tissue ([1]; 2 min and 30 min): rapidly cleared
half-life ([1]; samples at 2 min and 30 min): 8.21 min
inhibition at 1 µM (MAO-A [3]): < 25%
inhibition at 1 µM (MAO-B): < 25%
inhibition at 1 µM (MAO-A [4]): < 25%
tau binding site shared (competition with [^3H]-Example Compound 68) (0N4R Tau fibrils): share the same binding site
Compound: OCC1CCN(c2ccc(-c3cc4cc(O)ccc4[nH]3)c(F)n2)CC1 [Example Compound 48, 2-{2-Fluoro-6-[4-(hydroxymethyl)piperidin-1-yl]pyridin-3-yl}-1H-indol-5-ol]

% inhibition of control enzyme activity, MAO-A (MAO-A [3]): ≤ 50%
% inhibition of control enzyme activity, MAO-B (MAO-B): ≤ 50%
% inhibition of control specific binding, MAO-A binding assay (MAO-A [4]): ≤ 50%
Compound: CNc1ccc(-c2ccc3cc(OCC(O)CF)ccc3n2)cc1 (stereo not shown) [THK-5117, reference compound]

The remaining lines, values behind:

Compound: CNc1ccc(-c2nc3ccc(O)cc3s2)cn1 [AZD2184, reference compound]
calculated half-life (t1/2) in rat brain tissue ([1]; samples at 2 min and 30 min): 6.65 min
t1/2 reported in Table 3 of Johnson, A. E., et al [2]: 6.8 min

Compound: CNc1ccc(/C=C/C=C/c2nc3ccc(O)cc3s2)cn1 [^11C-PBB3]
radiochemical purity after exposure to fluorescent light ([5]; at 1 min after exposure): 77%
radiochemical purity after exposure to fluorescent light ([5]; from 10 to 60 min): approximately 50%

Compound: [^3H] labeled (1-{5-[5-(2-Fluoroethoxy)-1H-indol-2-yl]pyrimidin-2-yl}piperidin-4-yl)methanol [[^3H]-Example Compound 72]
radiotracer binding in CBD brain tissue (tau plaques): displaceable binding in CBD brain tissue that correlate with tau-specific antibody AT8
radiotracer binding in PSP brain tissue (tau plaques): displaceable binding in PSP brain tissue that correlate with tau-specific antibody AT8
